Data as given in ChEMBL document CHEMBL1201862, “PubChem BioAssay data set” (2004).
Active and inactive are the calls of the source.

Assays:
[1] = viability loss in HeLa cells – cytotoxicity control for MgcRacGAP inhibitor project, dose response (AID 624300); type: functional
Lethal factor = Lethal factor (Bacillus anthracis, UniProt P15917); assay: High-throughput multiplex microsphere dose response for inhibitors of toxin protease, specifically Lethal Factor protease, compounds from Cherry Pick 02.; type: functional; settings: read-out: EC50_MICROM
Chain of Lethal factor (P15917 whole entry): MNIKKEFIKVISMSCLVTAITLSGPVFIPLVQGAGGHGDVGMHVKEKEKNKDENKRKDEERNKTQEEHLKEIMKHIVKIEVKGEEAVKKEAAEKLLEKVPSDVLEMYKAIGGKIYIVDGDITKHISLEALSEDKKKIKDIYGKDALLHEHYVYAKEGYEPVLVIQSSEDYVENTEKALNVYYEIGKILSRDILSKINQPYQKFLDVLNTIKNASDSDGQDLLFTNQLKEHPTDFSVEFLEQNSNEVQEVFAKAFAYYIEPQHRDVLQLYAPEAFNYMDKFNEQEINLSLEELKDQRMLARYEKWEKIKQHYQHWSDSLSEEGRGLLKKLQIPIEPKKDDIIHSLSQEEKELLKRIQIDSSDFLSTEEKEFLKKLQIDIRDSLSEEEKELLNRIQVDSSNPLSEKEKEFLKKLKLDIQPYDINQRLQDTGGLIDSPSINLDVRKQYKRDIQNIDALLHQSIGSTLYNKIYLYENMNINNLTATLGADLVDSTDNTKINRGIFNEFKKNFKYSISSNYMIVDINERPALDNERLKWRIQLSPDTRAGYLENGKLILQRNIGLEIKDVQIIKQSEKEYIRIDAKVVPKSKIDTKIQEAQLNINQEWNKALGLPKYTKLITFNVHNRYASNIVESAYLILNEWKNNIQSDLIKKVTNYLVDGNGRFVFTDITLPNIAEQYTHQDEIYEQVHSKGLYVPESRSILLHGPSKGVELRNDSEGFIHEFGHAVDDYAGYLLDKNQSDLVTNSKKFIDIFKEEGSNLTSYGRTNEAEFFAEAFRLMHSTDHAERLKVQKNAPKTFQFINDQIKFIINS

[2] = biological target: T1, Histone-lysine N-methyltransferase NSD2 (Homo sapiens, UniProt O96028); type: biochemical
T1 sequence (O96028 whole entry): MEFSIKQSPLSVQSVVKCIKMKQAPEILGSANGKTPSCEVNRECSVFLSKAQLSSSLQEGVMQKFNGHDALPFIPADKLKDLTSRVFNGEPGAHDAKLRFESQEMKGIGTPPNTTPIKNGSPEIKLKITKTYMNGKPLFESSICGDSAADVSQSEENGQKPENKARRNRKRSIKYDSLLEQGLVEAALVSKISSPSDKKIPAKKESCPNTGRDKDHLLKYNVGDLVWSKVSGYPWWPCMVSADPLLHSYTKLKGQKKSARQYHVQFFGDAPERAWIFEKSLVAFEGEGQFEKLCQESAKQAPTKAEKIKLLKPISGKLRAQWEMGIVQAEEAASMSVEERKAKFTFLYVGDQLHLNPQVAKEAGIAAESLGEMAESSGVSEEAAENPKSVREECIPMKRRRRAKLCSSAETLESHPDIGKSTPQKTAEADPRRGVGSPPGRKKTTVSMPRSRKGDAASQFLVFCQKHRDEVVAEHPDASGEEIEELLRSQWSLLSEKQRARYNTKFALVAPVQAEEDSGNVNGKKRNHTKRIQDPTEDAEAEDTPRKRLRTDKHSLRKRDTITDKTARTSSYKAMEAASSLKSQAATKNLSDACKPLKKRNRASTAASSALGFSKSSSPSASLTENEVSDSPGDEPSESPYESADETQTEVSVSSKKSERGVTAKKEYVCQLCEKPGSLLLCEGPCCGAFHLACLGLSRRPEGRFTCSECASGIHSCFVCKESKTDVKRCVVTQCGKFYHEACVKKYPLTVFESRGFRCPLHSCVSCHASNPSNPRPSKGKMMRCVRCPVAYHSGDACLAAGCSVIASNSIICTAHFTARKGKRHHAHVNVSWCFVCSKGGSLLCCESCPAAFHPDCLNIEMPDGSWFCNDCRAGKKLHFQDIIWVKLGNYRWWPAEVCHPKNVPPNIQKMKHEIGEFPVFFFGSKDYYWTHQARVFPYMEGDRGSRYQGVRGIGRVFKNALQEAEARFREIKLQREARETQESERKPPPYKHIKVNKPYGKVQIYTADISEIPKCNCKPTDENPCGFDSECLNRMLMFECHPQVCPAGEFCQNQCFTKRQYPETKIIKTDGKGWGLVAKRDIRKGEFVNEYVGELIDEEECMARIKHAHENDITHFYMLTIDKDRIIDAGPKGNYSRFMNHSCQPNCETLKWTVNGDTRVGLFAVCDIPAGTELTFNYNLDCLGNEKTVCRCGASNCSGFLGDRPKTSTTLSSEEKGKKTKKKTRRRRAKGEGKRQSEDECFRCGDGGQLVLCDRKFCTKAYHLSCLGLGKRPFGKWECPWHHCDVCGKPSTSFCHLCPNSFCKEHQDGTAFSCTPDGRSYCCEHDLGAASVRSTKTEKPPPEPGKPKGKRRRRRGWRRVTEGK

[3] = biological target: Botulinum neurotoxin type A (Clostridium botulinum (strain Hall / ATCC 3502 / NCTC 13319 / Type A), UniProt P0DPI1); assay: High-throughput multiplex microsphere dose response for inhibitors of toxin protease, specifically Botulinum neurotoxin light chain A protease, compounds from Cherry Pick 02.; type: functional; settings: read-out: EC50_MICROM
Chain of Botulinum neurotoxin type A (P0DPI1 2-448 limits assumed): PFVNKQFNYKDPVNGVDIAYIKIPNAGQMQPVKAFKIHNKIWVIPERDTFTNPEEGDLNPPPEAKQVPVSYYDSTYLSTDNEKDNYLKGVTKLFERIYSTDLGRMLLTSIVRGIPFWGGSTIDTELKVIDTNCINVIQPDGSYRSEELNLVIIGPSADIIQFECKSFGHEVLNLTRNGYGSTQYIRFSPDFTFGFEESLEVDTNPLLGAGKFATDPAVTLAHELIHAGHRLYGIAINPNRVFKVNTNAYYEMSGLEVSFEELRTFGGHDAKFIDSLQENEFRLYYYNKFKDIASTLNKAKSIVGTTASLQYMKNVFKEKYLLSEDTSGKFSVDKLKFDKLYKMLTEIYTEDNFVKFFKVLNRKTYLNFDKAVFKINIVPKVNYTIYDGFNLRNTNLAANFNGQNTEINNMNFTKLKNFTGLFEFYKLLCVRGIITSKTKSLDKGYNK

[4] = biological target: T2, Rac GTPase-activating protein 1 (Homo sapiens, UniProt Q9H0H5); assay: blockers of MgcRacGAP-driven Rac1 GTP hydrolysis – biochemical, ADP Hunter fluorescence, primary and confirmatory, confirmation (AID 624330); type: functional
T2 sequence (Q9H0H5 whole entry): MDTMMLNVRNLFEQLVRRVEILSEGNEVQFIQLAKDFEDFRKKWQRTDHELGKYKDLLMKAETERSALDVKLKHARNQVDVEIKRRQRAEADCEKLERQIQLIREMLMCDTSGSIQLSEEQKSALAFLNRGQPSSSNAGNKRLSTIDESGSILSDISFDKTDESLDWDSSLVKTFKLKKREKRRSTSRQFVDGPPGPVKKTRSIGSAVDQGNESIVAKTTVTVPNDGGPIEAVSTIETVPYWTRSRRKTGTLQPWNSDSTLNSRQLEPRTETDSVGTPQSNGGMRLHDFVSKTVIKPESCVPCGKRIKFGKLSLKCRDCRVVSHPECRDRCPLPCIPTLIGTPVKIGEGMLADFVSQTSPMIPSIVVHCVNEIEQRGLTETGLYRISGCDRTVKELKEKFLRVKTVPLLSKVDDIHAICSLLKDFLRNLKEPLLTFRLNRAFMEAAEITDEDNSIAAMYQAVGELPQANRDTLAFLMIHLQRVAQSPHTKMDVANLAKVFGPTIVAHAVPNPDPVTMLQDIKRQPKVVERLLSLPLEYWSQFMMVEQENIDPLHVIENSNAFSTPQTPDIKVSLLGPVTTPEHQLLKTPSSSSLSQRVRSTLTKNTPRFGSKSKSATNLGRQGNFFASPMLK

Nonstructural protein 1 = Nonstructural protein 1 (Influenza A virus, UniProt Q194T2); type: functional, Influenza A virus (A/California/07/2009(H1N1))
Chain of Nonstructural protein 1 (Q194T2 whole entry): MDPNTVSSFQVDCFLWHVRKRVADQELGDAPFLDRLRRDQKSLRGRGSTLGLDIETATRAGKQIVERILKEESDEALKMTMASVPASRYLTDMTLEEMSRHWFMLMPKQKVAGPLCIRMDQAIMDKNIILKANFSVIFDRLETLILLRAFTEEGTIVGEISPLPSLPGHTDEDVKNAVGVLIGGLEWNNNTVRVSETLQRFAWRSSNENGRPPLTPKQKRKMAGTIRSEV

[5] = biological target: Botulinum neurotoxin type F (Clostridium botulinum, UniProt P30996); assay: High-throughput multiplex microsphere dose response for inhibitors of toxin protease, specifically Botulinum neurotoxin light chain F protease, compounds from Cherry Pick 02.; type: functional; settings: read-out: EC50_MICROM
Chain of Botulinum neurotoxin type F (P30996 1-436 limits assumed): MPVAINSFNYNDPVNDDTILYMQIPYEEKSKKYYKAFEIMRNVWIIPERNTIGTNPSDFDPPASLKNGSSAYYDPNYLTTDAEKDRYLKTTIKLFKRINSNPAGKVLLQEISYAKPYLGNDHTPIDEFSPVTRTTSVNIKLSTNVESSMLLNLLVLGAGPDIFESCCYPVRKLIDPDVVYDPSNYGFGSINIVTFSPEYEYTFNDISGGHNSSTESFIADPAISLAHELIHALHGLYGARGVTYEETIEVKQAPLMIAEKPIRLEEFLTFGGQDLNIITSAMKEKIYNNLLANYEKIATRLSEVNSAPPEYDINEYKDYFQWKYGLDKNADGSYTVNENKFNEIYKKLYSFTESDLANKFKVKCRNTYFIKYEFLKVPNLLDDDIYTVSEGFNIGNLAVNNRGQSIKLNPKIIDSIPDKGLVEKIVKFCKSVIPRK

[6] = biological target: Dual specificity protein kinase CLK4 (Homo sapiens, UniProt Q9HAZ1); type: functional
[7] = biological target: cAMP-dependent protein kinase catalytic subunit alpha (Homo sapiens, UniProt P17612); type: functional
[8] = biological target: Cell division cycle 7-related protein kinase (Homo sapiens, UniProt O00311); type: functional;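 further: value obtained from a kinome-wide kinase panel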
Chain of Cell division cycle 7-related protein kinase (O00311 whole entry): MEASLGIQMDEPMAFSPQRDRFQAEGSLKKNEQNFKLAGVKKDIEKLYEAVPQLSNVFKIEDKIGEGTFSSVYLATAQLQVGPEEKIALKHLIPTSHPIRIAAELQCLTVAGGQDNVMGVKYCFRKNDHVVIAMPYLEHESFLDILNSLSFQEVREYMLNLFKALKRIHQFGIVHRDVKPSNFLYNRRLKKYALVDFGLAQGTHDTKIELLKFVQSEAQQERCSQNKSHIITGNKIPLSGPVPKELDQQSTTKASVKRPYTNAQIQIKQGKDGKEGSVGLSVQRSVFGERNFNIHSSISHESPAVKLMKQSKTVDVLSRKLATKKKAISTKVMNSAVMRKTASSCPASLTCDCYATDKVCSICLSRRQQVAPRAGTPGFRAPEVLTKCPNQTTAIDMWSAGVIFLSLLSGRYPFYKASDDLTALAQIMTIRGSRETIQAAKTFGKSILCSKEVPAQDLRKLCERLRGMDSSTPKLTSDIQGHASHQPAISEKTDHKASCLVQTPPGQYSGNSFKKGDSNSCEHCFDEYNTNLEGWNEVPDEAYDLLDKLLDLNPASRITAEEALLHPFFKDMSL

[9] = biological target: Serine/threonine-protein kinase pim-1 (Homo sapiens, UniProt P11309); type: functional
Chain of Serine/threonine-protein kinase pim-1 (P11309 whole entry): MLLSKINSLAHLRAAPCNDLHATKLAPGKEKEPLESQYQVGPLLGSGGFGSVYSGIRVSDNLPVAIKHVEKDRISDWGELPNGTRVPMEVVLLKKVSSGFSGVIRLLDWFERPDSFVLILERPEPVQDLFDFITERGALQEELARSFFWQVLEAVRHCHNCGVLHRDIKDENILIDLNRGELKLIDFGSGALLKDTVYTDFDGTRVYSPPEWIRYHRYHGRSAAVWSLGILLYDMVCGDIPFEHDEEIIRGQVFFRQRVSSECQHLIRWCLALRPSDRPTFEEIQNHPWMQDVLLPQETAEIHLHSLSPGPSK

[10] = biological target: Glycogen synthase kinase-3 beta (Homo sapiens, UniProt P49841); type: functional;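 further: value comes from a broad kinome profiling panel, with GSK3B as the panel member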
Chain of Glycogen synthase kinase-3 beta (P49841 whole entry): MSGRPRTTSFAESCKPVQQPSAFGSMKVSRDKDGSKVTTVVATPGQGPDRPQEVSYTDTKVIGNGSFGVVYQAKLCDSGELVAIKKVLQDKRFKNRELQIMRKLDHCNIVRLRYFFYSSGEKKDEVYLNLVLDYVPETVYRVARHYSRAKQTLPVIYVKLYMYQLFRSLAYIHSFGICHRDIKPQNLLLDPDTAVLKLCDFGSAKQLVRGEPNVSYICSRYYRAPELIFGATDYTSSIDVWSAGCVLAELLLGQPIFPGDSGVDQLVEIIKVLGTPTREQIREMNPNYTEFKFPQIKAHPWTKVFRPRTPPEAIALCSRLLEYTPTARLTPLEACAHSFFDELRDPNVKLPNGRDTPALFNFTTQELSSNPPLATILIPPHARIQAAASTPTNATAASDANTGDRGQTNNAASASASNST

[11] = biological target: Mitogen-activated protein kinase kinase kinase kinase 4 (Homo sapiens, UniProt O95819); type: functional
[12] = biological target: Interleukin-1 receptor-associated kinase 4 (Homo sapiens, UniProt Q9NWZ3); type: functional
Chain of Interleukin-1 receptor-associated kinase 4 (Q9NWZ3 whole entry): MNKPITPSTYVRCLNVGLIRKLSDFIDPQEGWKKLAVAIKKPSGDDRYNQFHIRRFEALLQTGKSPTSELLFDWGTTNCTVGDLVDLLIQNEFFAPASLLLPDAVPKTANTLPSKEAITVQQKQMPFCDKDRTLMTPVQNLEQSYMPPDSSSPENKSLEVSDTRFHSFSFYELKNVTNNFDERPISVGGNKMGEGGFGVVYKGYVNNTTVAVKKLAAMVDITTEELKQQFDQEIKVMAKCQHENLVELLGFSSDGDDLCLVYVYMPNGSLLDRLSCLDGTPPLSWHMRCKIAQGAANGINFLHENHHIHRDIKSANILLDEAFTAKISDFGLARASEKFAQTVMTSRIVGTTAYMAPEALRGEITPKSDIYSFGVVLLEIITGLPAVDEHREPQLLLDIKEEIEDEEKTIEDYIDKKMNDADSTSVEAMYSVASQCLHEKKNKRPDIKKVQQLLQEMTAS

[13] = biological target: Homeodomain-interacting protein kinase 2 (Homo sapiens, UniProt Q9H2X6); type: functional;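 further: measured within a kinome-wide kinase profiling panel, HIPK2 being one panel member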
Chain of Homeodomain-interacting protein kinase 2 (Q9H2X6 whole entry): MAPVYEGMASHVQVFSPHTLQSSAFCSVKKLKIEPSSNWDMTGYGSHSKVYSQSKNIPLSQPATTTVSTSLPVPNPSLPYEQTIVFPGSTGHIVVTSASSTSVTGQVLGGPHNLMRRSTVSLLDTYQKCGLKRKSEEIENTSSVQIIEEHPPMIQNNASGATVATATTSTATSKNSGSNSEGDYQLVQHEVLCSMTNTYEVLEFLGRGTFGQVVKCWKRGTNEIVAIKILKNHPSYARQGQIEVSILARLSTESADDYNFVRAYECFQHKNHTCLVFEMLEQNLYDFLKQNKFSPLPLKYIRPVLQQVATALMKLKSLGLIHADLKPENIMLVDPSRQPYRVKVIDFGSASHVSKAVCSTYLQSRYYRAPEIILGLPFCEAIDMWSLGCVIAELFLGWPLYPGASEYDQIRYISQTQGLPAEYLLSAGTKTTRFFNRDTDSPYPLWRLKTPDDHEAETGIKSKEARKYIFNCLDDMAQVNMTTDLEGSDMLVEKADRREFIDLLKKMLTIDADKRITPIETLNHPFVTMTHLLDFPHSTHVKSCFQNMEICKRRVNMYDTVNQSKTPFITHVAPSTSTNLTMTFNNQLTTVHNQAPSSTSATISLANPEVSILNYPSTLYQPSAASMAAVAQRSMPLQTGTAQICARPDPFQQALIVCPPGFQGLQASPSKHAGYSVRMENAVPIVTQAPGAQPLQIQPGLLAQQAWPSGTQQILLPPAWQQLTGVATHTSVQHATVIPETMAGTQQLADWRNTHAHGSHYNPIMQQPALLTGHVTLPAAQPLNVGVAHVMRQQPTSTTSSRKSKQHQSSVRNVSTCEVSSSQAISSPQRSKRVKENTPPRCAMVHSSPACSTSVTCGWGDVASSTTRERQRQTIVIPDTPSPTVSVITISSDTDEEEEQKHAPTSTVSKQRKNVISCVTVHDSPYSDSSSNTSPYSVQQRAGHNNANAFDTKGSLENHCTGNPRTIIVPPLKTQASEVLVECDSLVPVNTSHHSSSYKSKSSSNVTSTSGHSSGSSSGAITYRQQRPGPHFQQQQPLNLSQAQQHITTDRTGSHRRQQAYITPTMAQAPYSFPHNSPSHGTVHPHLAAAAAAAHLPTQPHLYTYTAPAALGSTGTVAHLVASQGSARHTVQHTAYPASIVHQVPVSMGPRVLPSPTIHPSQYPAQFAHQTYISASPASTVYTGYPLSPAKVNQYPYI

CN(C)c1ccc(/C=C2/C[N+](C)(C)C/C(=C/c3ccc(N(C)C)cc3)C2=O)cc1
CC50 [1]: 100 µM (active) | EC50 (Lethal factor): 600 nM (active) | AC50 [2]: 11.9 µM (active) | EC50 [3]: 1.6 µM (active) | IC50 [4]: 82.9 µM (active) | IC50 (Nonstructural protein 1): 6.59 µM (active) | EC50 [5]: > 20 µM (inactive)

COCCN(CCOC)c1cc(-c2c[nH]c3ncccc23)cc(Cl)n1
Ki [6]: 10 nM (active) | Ki [7]: 501 nM (active) | Ki [8]: 10 nM (active) | Ki [9]: 1.26 µM (active) | Ki [10]: 1 µM (active) | Ki [11]: 20 nM (active) | Ki [12]: 2.51 µM (active) | Ki [13]: 251 nM (active)
